Test results taken from ChEMBL document CHEMBL1201862, “PubChem BioAssay data set” (2004).
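A five-concentration, 48-hour dose response in 96-well plates underlies each endpoint, interpolated linearly between surrounding concentrations. Abbreviation: GI50, concentration required for 50% inhibition of growth.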 Activity calls are given as the source filed them. No stated cut-off is given here; in the data, active = GI50 up to about 1.1 µM and inactive = higher.

Legend:
Experiment in all cases: DTP human tumour cell line panel, 48 h
OVCAR-4 = test system: OVCAR-4
HCC 2998 = test system: HCC 2998
MOLT-4 = test system: MOLT-4
786-0 = test system: 786-0
ACHN = test system: ACHN
BT-549 = test system: BT-549
LOX IMVI = test system: LOX IMVI
SK-OV-3 = test system: SK-OV-3
UACC-62 = test system: UACC-62
M14 = test system: M14
UACC-257 = test system: UACC-257
T47D = test system: T47D
Malme-3M = test system: Malme-3M
NCI-H460 = test system: NCI-H460
PC-3 = test system: PC-3
MCF7 = test system: MCF7
OVCAR-5 = test system: OVCAR-5
RXF 393 = test system: RXF 393
HCT-15 = test system: HCT-15
NCI-H226 = test system: NCI-H226
SF-539 = test system: SF-539
SK-MEL-5 = test system: SK-MEL-5
IGROV-1 = test system: IGROV-1
A498 = test system: A498
SNB-19 = test system: SNB-19
UO-31 = test system: UO-31
MDA-MB-231 = test system: MDA-MB-231
K562 = test system: K562
CCRF-CEM = test system: CCRF-CEM
SK-MEL-28 = test system: SK-MEL-28
COLO 205 = test system: COLO 205
MDA-MB-435 = test system: MDA-MB-435
NCI-H522 = test system: NCI-H522
TK-10 = test system: TK-10
OVCAR-3 = test system: OVCAR-3
Hs-578T = test system: Hs-578T
CAKI-1 = test system: CAKI-1
HOP-92 = test system: HOP-92
A549 = test system: A549
SF-268 = test system: SF-268
HL-60 = test system: HL-60
EKVX = test system: EKVX
KM12 = test system: KM12
NCI-H23 = test system: NCI-H23
SR = test system: SR
SN12C = test system: SN12C
MDA-N = test system: MDA-N
NCI/ADR-RES = test system: NCI/ADR-RES
OVCAR-8 = test system: OVCAR-8
SK-MEL-2 = test system: SK-MEL-2
SW-620 = test system: SW-620
HOP-62 = test system: HOP-62
HT-29 = test system: HT-29
HCT-116 = test system: HCT-116
U-251 = test system: U-251
RPMI-8226 = test system: RPMI-8226
DU-145 = test system: DU-145
SF-295 = test system: SF-295
SNB-75 = test system: SNB-75

Compound: COc1ccc(-c2c(C#N)c(N)nc(Sc3ccccc3N)c2C#N)cc1
- GI50 (OVCAR-4): 13.6 µM (inactive)
- GI50 (HCC 2998): > 43.1 µM (inactive)
- GI50 (MOLT-4): > 71 µM (inactive)
- GI50 (786-0): 4.82 µM (inactive)
- GI50 (ACHN): 13.1 µM (inactive)
- GI50 (BT-549): 9.35 µM (inactive)
- GI50 (LOX IMVI): 16.8 µM (inactive)
- GI50 (SK-OV-3): 9.53 µM (inactive)
- GI50 (UACC-62): 9.46 µM (inactive)
- GI50 (M14): 27.9 µM (inactive)
- GI50 (UACC-257): 39.3 µM (inactive)
- GI50 (T47D): 2.82 µM (inactive)
- GI50 (Malme-3M): 10.2 µM (inactive)
- GI50 (NCI-H460): 19 µM (inactive)
- GI50 (PC-3): 12.9 µM (inactive)
- GI50 (MCF7): 14.6 µM (inactive)
- GI50 (OVCAR-5): > 53.5 µM (inactive)
- GI50 (RXF 393): 6.46 µM (inactive)
- GI50 (HCT-15): 24 µM
- GI50 (NCI-H226): 52.8 µM (inactive)
- GI50 (SF-539): 12.1 µM (inactive)
- GI50 (SK-MEL-5): 28.6 µM (inactive)
- GI50 (IGROV-1): 10.8 µM (inactive)
- GI50 (A498): 4.73 µM (inactive)
- GI50 (SNB-19): 16.1 µM (inactive)
- GI50 (UO-31): 13.3 µM (inactive)
- GI50 (MDA-MB-231): 11.7 µM (inactive)
- GI50 (K562): 32.3 µM (inactive)
- GI50 (CCRF-CEM): > 100 µM (inactive)
- GI50 (SK-MEL-28): > 50.9 µM (inactive)
- GI50 (COLO 205): > 100 µM (inactive)
- GI50 (MDA-MB-435): > 83 µM (inactive)
- GI50 (NCI-H522): 10 µM (inactive)
- GI50 (TK-10): 10.9 µM (inactive)
- GI50 (OVCAR-3): 22.1 µM (inactive)
- GI50 (Hs-578T): 6.05 µM (inactive)
- GI50 (CAKI-1): 8.36 µM (inactive)
- GI50 (HOP-92): 4.79 µM (inactive)
- GI50 (A549): 17.6 µM (inactive)
- GI50 (SF-268): 5.77 µM (inactive)
- GI50 (HL-60): > 100 µM (inactive)
- GI50 (EKVX): 15.7 µM (inactive)
- GI50 (KM12): 44.9 µM (inactive)
- GI50 (NCI-H23): > 48.4 µM (inactive)
- GI50 (SR): 43.7 µM (inactive)
- GI50 (SN12C): 9.66 µM (inactive)
- GI50 (MDA-N): > 100 µM (inactive)
- GI50 (NCI/ADR-RES): 7.69 µM (inactive)
- GI50 (OVCAR-8): 8.11 µM (inactive)
- GI50 (SK-MEL-2): 9.57 µM (inactive)
- GI50 (SW-620): > 90.6 µM (inactive)
- GI50 (HOP-62): 6.1 µM (inactive)
- GI50 (HT-29): 7.69 µM (inactive)
- GI50 (HCT-116): 10.7 µM (inactive)
- GI50 (U-251): 13.4 µM (inactive)
- GI50 (RPMI-8226): > 75.5 µM (inactive)
- GI50 (DU-145): > 47.6 µM (inactive)
- GI50 (SF-295): 10.2 µM (inactive)

Compound: O=C(NCCc1n[nH]c2c1C(=O)C=C(Nc1ccccc1)C2=O)OCc1ccccc1
- GI50 (OVCAR-4): 66.4 µM (inactive)
- GI50 (MOLT-4): > 100 µM (inactive)
- GI50 (786-0): 47.1 µM (inactive)
- GI50 (ACHN): > 100 µM (inactive)
- GI50 (BT-549): > 100 µM (inactive)
- GI50 (LOX IMVI): > 100 µM (inactive)
- GI50 (SK-OV-3): > 100 µM (inactive)
- GI50 (UACC-62): 8.09 µM (inactive)
- GI50 (M14): > 100 µM (inactive)
- GI50 (UACC-257): > 100 µM (inactive)
- GI50 (T47D): 53.8 µM (inactive)
- GI50 (NCI-H460): > 100 µM (inactive)
- GI50 (PC-3): > 100 µM (inactive)
- GI50 (MCF7): > 100 µM (inactive)
- GI50 (OVCAR-5): > 100 µM (inactive)
- GI50 (RXF 393): > 100 µM (inactive)
- GI50 (HCT-15): > 100 µM
- GI50 (NCI-H226): > 100 µM (inactive)
- GI50 (SF-539): > 100 µM (inactive)
- GI50 (SK-MEL-5): > 100 µM (inactive)
- GI50 (IGROV-1): > 100 µM (inactive)
- GI50 (A498): > 100 µM (inactive)
- GI50 (SNB-19): > 100 µM (inactive)
- GI50 (UO-31): > 100 µM (inactive)
- GI50 (MDA-MB-231): > 100 µM (inactive)
- GI50 (CCRF-CEM): > 100 µM (inactive)
- GI50 (COLO 205): > 100 µM (inactive)
- GI50 (MDA-MB-435): > 100 µM (inactive)
- GI50 (NCI-H522): > 100 µM (inactive)
- GI50 (TK-10): > 100 µM (inactive)
- GI50 (OVCAR-3): > 100 µM (inactive)
- GI50 (Hs-578T): > 100 µM (inactive)
- GI50 (CAKI-1): > 100 µM (inactive)
- GI50 (HOP-92): > 100 µM (inactive)
- GI50 (A549): > 100 µM (inactive)
- GI50 (SF-268): > 100 µM (inactive)
- GI50 (HL-60): > 100 µM (inactive)
- GI50 (EKVX): > 100 µM (inactive)
- GI50 (KM12): > 100 µM (inactive)
- GI50 (NCI-H23): > 100 µM (inactive)
- GI50 (SR): > 100 µM (inactive)
- GI50 (SN12C): > 100 µM (inactive)
- GI50 (MDA-N): > 100 µM (inactive)
- GI50 (NCI/ADR-RES): > 100 µM (inactive)
- GI50 (OVCAR-8): > 100 µM (inactive)
- GI50 (SK-MEL-2): > 100 µM (inactive)
- GI50 (SW-620): > 100 µM (inactive)
- GI50 (HT-29): > 100 µM (inactive)
- GI50 (SNB-75): > 100 µM (inactive)
- GI50 (HCT-116): 97.3 µM (inactive)
- GI50 (U-251): > 100 µM (inactive)
- GI50 (RPMI-8226): > 100 µM (inactive)
- GI50 (DU-145): > 100 µM (inactive)
- GI50 (SF-295): > 100 µM (inactive)

Compound: COc1ccc(-c2oc3cc(OC)c(OC)c(O)c3c(=O)c2OC)cc1
- GI50 (OVCAR-4): 89.9 µM (inactive)
- GI50 (HCC 2998): > 100 µM (inactive)
- GI50 (MOLT-4): > 100 µM (inactive)
- GI50 (786-0): 21.9 µM (inactive)
- GI50 (ACHN): 33.3 µM (inactive)
- GI50 (BT-549): 18 µM (inactive)
- GI50 (LOX IMVI): 53.5 µM (inactive)
- GI50 (SK-OV-3): 22.7 µM (inactive)
- GI50 (UACC-62): 21.4 µM (inactive)
- GI50 (M14): > 100 µM (inactive)
- GI50 (UACC-257): > 100 µM (inactive)
- GI50 (T47D): 28.4 µM (inactive)
- GI50 (Malme-3M): > 100 µM (inactive)
- GI50 (NCI-H460): > 100 µM (inactive)
- GI50 (PC-3): 39.8 µM (inactive)
- GI50 (MCF7): 41.6 µM (inactive)
- GI50 (OVCAR-5): > 100 µM (inactive)
- GI50 (RXF 393): 22.7 µM (inactive)
- GI50 (HCT-15): 40.5 µM
- GI50 (NCI-H226): 48.9 µM (inactive)
- GI50 (SF-539): 30.9 µM (inactive)
- GI50 (SK-MEL-5): > 100 µM (inactive)
- GI50 (IGROV-1): 18.7 µM (inactive)
- GI50 (SNB-19): 28.4 µM (inactive)
- GI50 (UO-31): > 100 µM (inactive)
- GI50 (MDA-MB-231): 17 µM (inactive)
- GI50 (K562): > 100 µM (inactive)
- GI50 (CCRF-CEM): > 100 µM (inactive)
- GI50 (SK-MEL-28): > 100 µM (inactive)
- GI50 (COLO 205): > 100 µM (inactive)
- GI50 (MDA-MB-435): > 100 µM (inactive)
- GI50 (NCI-H522): 33.7 µM (inactive)
- GI50 (TK-10): 34.1 µM (inactive)
- GI50 (Hs-578T): 24 µM (inactive)
- GI50 (CAKI-1): 10.5 µM (inactive)
- GI50 (HOP-92): 14.5 µM (inactive)
- GI50 (A549): > 100 µM (inactive)
- GI50 (SF-268): 24.5 µM (inactive)
- GI50 (HL-60): 29.4 µM (inactive)
- GI50 (EKVX): 41.6 µM (inactive)
- GI50 (KM12): > 100 µM (inactive)
- GI50 (SR): > 100 µM (inactive)
- GI50 (SN12C): 80.4 µM (inactive)
- GI50 (MDA-N): > 100 µM (inactive)
- GI50 (NCI/ADR-RES): 80.5 µM (inactive)
- GI50 (OVCAR-8): 43.2 µM (inactive)
- GI50 (SK-MEL-2): 30.6 µM (inactive)
- GI50 (SW-620): > 100 µM (inactive)
- GI50 (HOP-62): 30.3 µM (inactive)
- GI50 (HT-29): > 100 µM (inactive)
- GI50 (SNB-75): 15.4 µM (inactive)
- GI50 (HCT-116): > 100 µM (inactive)
- GI50 (U-251): 34 µM (inactive)
- GI50 (RPMI-8226): > 100 µM (inactive)
- GI50 (DU-145): 58.7 µM (inactive)
- GI50 (SF-295): 20.8 µM (inactive)
